Experimental data: publication PMC7587356, “High-Throughput Screening for Inhibitors of the SARS-CoV-2 Protease Using a FRET-Biosensor” (Molecules, 2020)
Where a name gives a salt, the structure may show the parent alone. Read-outs that look alike come from different tables or passages of the source.

Molecular target: SARS-CoV-2 3CLpro (Severe acute respiratory syndrome coronavirus 2, UniProt P0DTD1)
Test: biochemical
Format: biochemical
Parameters: Replicate_1 / Replicate_2 / mean / mean (LOPAC_screen_w_protease): unit not given here
Conditions: for inhibition at 5 µM: 4 h
[1] = sheet LOPAC_screen_w_protease, LOPAC1280 primary screen with protease, 5 µM compound, mean of the two replicates
[2] = sheet LOPAC_screen_w_protease, LOPAC1280 primary screen with protease, 5 µM compound, replicate 1
[3] = sheet LOPAC_screen_w_protease, LOPAC1280 primary screen with protease, 5 µM compound, replicate 2
[4] = sheet LOPAC_screen_w_protease, LOPAC1280 at 5 µM, mean of two replicates, read-out: mean
[5] = sheet LOPAC_screen_w_protease, LOPAC1280 at 5 µM, replicate 1, read-out: Replicate_1
[6] = sheet LOPAC_screen_w_protease, LOPAC1280 at 5 µM, replicate 2, read-out: Replicate_2
[7] = sheet LOPAC_screen_w_protease, primary screen with protease, mean of two replicates
[8] = sheet LOPAC_screen_w_protease, primary screen with protease, replicate 1
[9] = sheet LOPAC_screen_w_protease, primary screen with protease, replicate 2
[10] = sheet LOPAC_screen_w_protease, primary screen of LOPAC1280 at 5 µM with protease, mean of the two replicates, read-out: mean
[11] = sheet LOPAC_screen_w_protease, primary screen of LOPAC1280 at 5 µM with protease, replicate 1, read-out: Replicate_1
[12] = sheet LOPAC_screen_w_protease, primary screen of LOPAC1280 at 5 µM with protease, replicate 2, read-out: Replicate_2
[13] = sheet LOPAC_screen_w_protease, LOPAC1280 primary screen at 5 µM, with protease, mean of the two replicates, read-out: mean
[14] = sheet LOPAC_screen_w_protease, LOPAC1280 primary screen at 5 µM, with protease, replicate 1, read-out: Replicate_1
[15] = sheet LOPAC_screen_w_protease, LOPAC1280 primary screen at 5 µM, with protease, replicate 2, read-out: Replicate_2
[16] = sheet LOPAC_screen_w_protease, LOPAC1280 primary screen with protease, 5 µM compound, mean of the two replicates, read-out: mean
[17] = sheet LOPAC_screen_w_protease, LOPAC1280 primary screen with protease, 5 µM compound, replicate 1, read-out: Replicate_1
[18] = sheet LOPAC_screen_w_protease, LOPAC1280 primary screen with protease, 5 µM compound, replicate 2, read-out: Replicate_2
[19] = sheet LOPAC_screen_w_protease, LOPAC1280 at 5 µM, mean of two replicates
[20] = sheet LOPAC_screen_w_protease, LOPAC1280 at 5 µM, replicate 1
[21] = sheet LOPAC_screen_w_protease, LOPAC1280 at 5 µM, replicate 2
[22] = sheet LOPAC_screen_w_protease, primary screen with protease, compound at 5 µM, mean of two replicates, read-out: mean
[23] = sheet LOPAC_screen_w_protease, primary screen with protease, compound at 5 µM, replicate 1, read-out: Replicate_1
[24] = sheet LOPAC_screen_w_protease, primary screen with protease, compound at 5 µM, replicate 2, read-out: Replicate_2
[25] = sheet LOPAC_screen_w_protease, primary screen with protease, 5 µM, mean of two replicates, read-out: mean
[26] = sheet LOPAC_screen_w_protease, primary screen with protease, 5 µM, replicate 1, read-out: Replicate_1
[27] = sheet LOPAC_screen_w_protease, primary screen with protease, 5 µM, replicate 2, read-out: Replicate_2
[28] = LOPAC1280 primary screen with protease, 5 µM compound, replicate 1, read-out: Replicate_1 (LOPAC_screen_w_protease)
[29] = LOPAC1280 primary screen with protease, 5 µM compound, replicate 2, read-out: Replicate_2 (LOPAC_screen_w_protease)
[30] = LOPAC1280 primary screen with protease, 5 µM compound, mean of two replicates
[31] = LOPAC1280 primary screen with protease, 5 µM compound, replicate 1
[32] = LOPAC1280 primary screen with protease, 5 µM compound, replicate 2
[33] = LOPAC1280 primary screen with protease, 5 µM compound, mean of the two replicates

O=c1[nH]c2cc(Cl)c(Cl)cc2[nH]c1=O [6,7-Dichloroquinoxaline-2,3-dione]
mean [1]: 4.331
Replicate_1 [2]: 5.455
Replicate_2 [3]: 3.207

Cc1cc(C(C)(C)C)cc(C)c1CC1=NCCN1 [Xylometazoline hydrochloride]
inhibition at 5 µM [4]: 1.12%
inhibition at 5 µM [5]: 0.813%
inhibition at 5 µM [6]: 1.42%

C[C@H](Cc1ccc(OCC(=O)[O-])cc1)NC[C@H](O)c1cccc(Cl)c1.[Na+] [BRL 37344 sodium]
mean [7]: 2.226
Replicate_1 [8]: 0.8642
Replicate_2 [9]: 3.588

CCCCc1ccc(C(=O)O)nc1 [Fusaric acid]
inhibition at 5 µM (sheet LOPAC_screen_w_protease, primary screen with protease, mean of two replicates, read-out: mean): 2.51%
inhibition at 5 µM (sheet LOPAC_screen_w_protease, primary screen with protease, replicate 1, read-out: Replicate_1): 3.23%
inhibition at 5 µM (sheet LOPAC_screen_w_protease, primary screen with protease, replicate 2, read-out: Replicate_2): 1.8%

c1ccc2cc(-c3ncc[nH]3)ccc2c1 [Benazoline oxalate]
inhibition at 5 µM [10]: 3.39%
inhibition at 5 µM [11]: 1.95%
inhibition at 5 µM [12]: 4.83%

CCC1(C2=NCCN2)Cc2ccccc2O1 (centres unmarked) [Efaroxan hydrochloride]
inhibition at 5 µM [13]: 0.692%
inhibition at 5 µM [14]: 2.34%
inhibition at 5 µM [15]: -0.954%

Cc1ccccc1N1C(=O)c2cc(S(N)(=O)=O)c(Cl)cc2NC1C (centres unmarked) [Metolazone]
inhibition at 5 µM [16]: 5.24%
inhibition at 5 µM [17]: 4.55%
inhibition at 5 µM [18]: 5.92%

Cc1nc2ccccn2c(=O)c1CCN1CCC(C(=O)c2ccc(F)cc2)CC1 [Pirenperone]
inhibition at 5 µM [13]: 0.688%
inhibition at 5 µM [14]: 0.852%
inhibition at 5 µM [15]: 0.525%

Cl.OCc1c[nH]cn1 [4-Imidazolemethanol hydrochloride]
mean [19]: 1.065
Replicate_1 [20]: 2.558
Replicate_2 [21]: -0.4285

CC1=C(/C=C/C(C)=C/C=C/C(C)=C/C(=O)Nc2ccc(O)cc2)C(C)(C)CCC1 [Retinoic acid p-hydroxyanilide]
mean [7]: 2.295
Replicate_1 [8]: 3.365
Replicate_2 [9]: 1.2239

CSc1nc(N)c2ncn([C@@H]3O[C@H](COP(=O)(O)OP(=O)(O)O)[C@@H](O)[C@H]3O)c2n1.[Na].[Na].[Na]
mean [1]: 4.674
Replicate_1 [2]: 4.609
Replicate_2 [3]: 4.739

CNC(=O)OCC[N+](C)(C)C [Methylcarbamylcholine chloride]
inhibition at 5 µM [22]: 3%
inhibition at 5 µM [23]: 4.73%
inhibition at 5 µM [24]: 1.26%

S=C(NC1CCCCC1)N1CCC(c2cnc[nH]2)CC1 [Thioperamide maleate]
inhibition at 5 µM [25]: -0.179%
inhibition at 5 µM [26]: -0.586%
inhibition at 5 µM [27]: 0.227%

NC(=O)c1ccccc1 [Benzamide]
inhibition at 5 µM [13]: 0.755%
inhibition at 5 µM [14]: 1.21%
inhibition at 5 µM [15]: 0.297%

O=c1[nH]c(=O)n([C@H]2C[C@H](O)[C@@H](CO)O2)cc1Br [5-Bromo-2'-deoxyuridine]
inhibition at 5 µM [28]: 1.74%
inhibition at 5 µM [29]: 1.06%
mean (LOPAC_screen_w_protease) [30]: 1.398

Cc1scc2c1N(C(=O)CN1CCN(C)CC1)c1ccccc1NC2=O [Telenzepine dihydrochloride]
inhibition at 5 µM [25]: 0.413%
inhibition at 5 µM [26]: -0.915%
inhibition at 5 µM [27]: 1.74%

O=C(O)c1ccccc1Nc1ccccc1 [N-Phenylanthranilic acid]
inhibition at 5 µM [25]: 0.157%
inhibition at 5 µM [26]: 0.635%
inhibition at 5 µM [27]: -0.322%

NCC(CP(=O)(O)O)c1ccc(Cl)cc1 (centres unmarked) [Phaclofen]
mean [19]: 1.154
Replicate_1 [20]: -0.2982
Replicate_2 [21]: 2.606

O=c1[nH]c2ccccc2n1C1CCN(CCCC(c2ccc(F)cc2)c2ccc(F)cc2)CC1 [Pimozide]
inhibition at 5 µM [22]: 2.77%
inhibition at 5 µM [23]: 3.25%
inhibition at 5 µM [24]: 2.29%

C[N+]1(C)CCc2cc3c(cc2[C@H]1[C@@H]1OC(=O)c2c1ccc1c2OCO1)OCO3.[Br-] [(-)-Bicuculline methbromide, 1(S), 9(R)]
mean [7]: 2.342
Replicate_1 [8]: 1.484
Replicate_2 [9]: 3.2

COC(=O)[C@H]1[C@H]2C[C@H]3c4[nH]c5ccccc5c4CCN3C[C@H]2CC[C@@H]1O [Rauwolscine hydrochloride]
inhibition at 5 µM [22]: 3.1%
inhibition at 5 µM [23]: 3.55%
inhibition at 5 µM [24]: 2.65%

O=C(CCCN1CCC2(CC1)C(=O)NCN2c1ccccc1)c1ccc(F)cc1 [Spiperone hydrochloride]
inhibition at 5 µM [28]: 2.31%
inhibition at 5 µM [29]: 1.15%
mean (LOPAC_screen_w_protease) [30]: 1.727

S=C=Nc1cccc(C2(N3CCCCC3)CCCCC2)c1 [Metaphit methanesulfonate]
inhibition at 5 µM [16]: 5.96%
inhibition at 5 µM [17]: 6.38%
inhibition at 5 µM [18]: 5.54%

CN(C)CCOC(C)(c1ccccc1)c1ccccn1 (centres unmarked) [Doxylamine succinate]
inhibition at 5 µM [4]: 1.3%
inhibition at 5 µM [5]: 1.58%
inhibition at 5 µM [6]: 1.01%

CC(C)N(CCC(C(N)=O)(c1ccccc1)c1ccccn1)C(C)C (centres unmarked) [Disopyramide]
inhibition at 5 µM [10]: 3.48%
inhibition at 5 µM [11]: 4.56%
inhibition at 5 µM [12]: 2.4%

CNC(=C[N+](=O)[O-])NCCSCc1ccc(CN(C)C)o1 [Ranitidine hydrochloride]
inhibition at 5 µM (read-out: Replicate_1 (LOPAC_screen_w_protease)): 2.07%
inhibition at 5 µM (read-out: Replicate_2 (LOPAC_screen_w_protease)): 1.3%

COc1ccc(CCN(C)CCc2ccc(OC)c(OC)c2)cc1OC.Cl [YS-035 hydrochloride]
mean (sheet LOPAC_screen_w_protease, LOPAC1280 primary screen at 5 µM, with protease, mean of the two replicates): 0.8264
Replicate_1 (sheet LOPAC_screen_w_protease, LOPAC1280 primary screen at 5 µM, with protease, replicate 1): 0.7595
Replicate_2 (sheet LOPAC_screen_w_protease, LOPAC1280 primary screen at 5 µM, with protease, replicate 2): 0.8934

COc1c2c(nc3ccccc13)OC(C(C)(O)CO)C2 (centres unmarked) [Dubinidine]
mean (sheet LOPAC_screen_w_protease, primary screen with protease, compound at 5 µM, mean of two replicates): 2.93
Replicate_1 (sheet LOPAC_screen_w_protease, primary screen with protease, compound at 5 µM, replicate 1): 4.833
Replicate_2 (sheet LOPAC_screen_w_protease, primary screen with protease, compound at 5 µM, replicate 2): 1.026

CCCC(=O)NCCc1c2n(c3ccc(OC)cc13)Cc1ccccc1-2 [IIK7]
mean (sheet LOPAC_screen_w_protease, primary screen of LOPAC1280 at 5 µM with protease, mean of the two replicates): 3.902
Replicate_1 (sheet LOPAC_screen_w_protease, primary screen of LOPAC1280 at 5 µM with protease, replicate 1): 5.727
Replicate_2 (sheet LOPAC_screen_w_protease, primary screen of LOPAC1280 at 5 µM with protease, replicate 2): 2.078

CC1CN(S(=O)(=O)c2cccc3cnccc23)CCN1.Cl.Cl (centres unmarked)
mean [7]: 2.412
Replicate_1 [8]: 3.532
Replicate_2 [9]: 1.292

C/C(O)=C(\C#N)C(=O)Nc1cc(Br)ccc1Br [LFM-A13]
mean (LOPAC_screen_w_protease) [30]: 1.507
Replicate_1 (LOPAC_screen_w_protease) [31]: -0.001982
Replicate_2 (LOPAC_screen_w_protease) [32]: 3.017

N[C@@H](Cc1ccc(O)c(I)c1)C(=O)O [3-Iodo-L-tyrosine]
mean (LOPAC_screen_w_protease) [33]: 1.849
Replicate_1 (LOPAC_screen_w_protease) [31]: 1.662
Replicate_2 (LOPAC_screen_w_protease) [32]: 2.037

NCCS(=O)(=O)O [Taurine]
inhibition at 5 µM [28]: 2.66%
inhibition at 5 µM [29]: 1.18%
mean (LOPAC_screen_w_protease) [33]: 1.917

CSc1ccc2c(c1)N(CCC1CCCCN1C)c1ccccc1S2 (centres unmarked) [Thioridazine hydrochloride]
inhibition at 5 µM (read-out: Replicate_1): 0.0861%
inhibition at 5 µM (read-out: Replicate_2): 0.816%
inhibition at 5 µM (read-out: mean): 0.451%

NCCCCCC(=O)O [6-Aminohexanoic acid]
inhibition at 5 µM [28]: 2.45%
inhibition at 5 µM [29]: 1.78%
mean (LOPAC_screen_w_protease) [33]: 2.116

Cl.c1ccc2nc(C3=NCCN3)ccc2c1 [BU224 hydrochloride]
mean (LOPAC_screen_w_protease) [30]: 1.603
Replicate_1 (LOPAC_screen_w_protease) [31]: 1.353
Replicate_2 (LOPAC_screen_w_protease) [32]: 1.8522
